Data published in patent publication US20200270225A1, “Chiral Diacylhydrazine Ligands for Modulating the Expression of Exogenous Genes via an Ecdysone Receptor Complex” (Intrexon Corporation, priority 2007, published 2020).
Where two headings read alike, the source gives them in different places.

What was measured:
[1] = biological target: T1, [V390I/Y410E/E274V]-CfEcR (Choristoneura fumiferana, UniProt O77240); format: cell-based; conditions: 3T3 Cells; for RMFI (relative maximum fold induction): relative to GS-E ligand
T1 construct: assay construct b835
Description: (§1) Cellular gene switch assays were performed by transiently transfecting the following constructs in mouse embryonic fibroblast cells (NIH3T3). The wild-type D, E and F domains from Choristoneura fumiferana EcR or its V390I/Y410E/E274V mutant were fused to GAL4-DBD and placed under the control of the CMV promoter in the pBIND vector (Promega Corporation, Madison, Wis., USA). The DEF domains of EcRs shown were amplified using primers designed based on 20-25 nt sequences at the 5′ and 3′ ends. Restriction enzyme sites EcoR I/BamH I and Xba I were added to 5′ and 3′ primers respectively. The PCR products were digested with appropriate restriction enzymes and cloned into pBIND vector. The EcR LBDs cloned into pBIND vector were verified by sequencing. A chimeric RXR from Homo sapiens RXRP and Locusta migratoria RXR, fused to VP16-AD and placed under the control of an SV40e promoter, was constructed as previously described (Kumar P & Katakam A in Gene Transfer, Friedmann T and Rossi J, eds, pp. 643-651 (2007), Cold Spring Harbor Laboratory Press, Cold Spring Harbor, N.Y.). The inducible luciferase reporter plasmid pFRLuc (Stratagene Cloning Systems, La Jolla, Calif., USA), contains five copies of the GAL4 response element and a synthetic minimal promoter.
(§2) NIH3T3 cells were maintained at 37′C and 5% CO2 in Dulbecco's modified Eagle's medium (DMEM) supplemented with 10% bovine calf serum, both obtained from Mediatech Inc., Manassas, Va. Cells were planted in a 96-well plate at a density of 2,500 cells/well in 50 μL of growth medium. The following day cells were first treated with 35 μL of serum-free DMEM containing dimethyl sulfoxide (DMSO; control) or a DMSO solution containing ligand. Cells were then transfected with 15 μl of serum-free DMEM containing 0.04 μg of EcR construct, 0.04 ug of RXR construct, and 0.16 μg of luciferase reporter construct per well, using SuperFect™ transfection reagent (Qiagen Inc., Valencia, Calif., USA) according to the manufacturer's instructions. Ligands were tested at 8 doses from 0.01-33 μM and the final DMSO concentration was 0.33% in both control and treatment wells. After a 48 hour post-treatment and transfection incubation, the cells were assayed for luciferase activity using the Bright-Glo™ Luciferase Assay System (Promega Corporation, Madison, Wis., USA) following the manufacturer's instructions. EC50 values were measured minimally in duplicate.
(§3) Luciferase reporter gene expression was measured 48 h after cell treatment using Bright-Glo™ Luciferase Assay System from Promega (E2650). Luminescence was detected at room temperature using a Dynex MLX microtiter plate luminometer.
(§4) Each assay was conducted in two separate wells, and the two values were averaged. Fold inductions were calculated by dividing relative light units (“RLU”) in ligand treated cells with RLU in DMSO treated cells. EC50s were calculated from dose response data using a three-parameter logistic model. Relative Max FI was determined as the maximum fold induction of the tested ligand (an embodiment of the invention) observed at any concentration relative to the maximum fold induction of GS™-E ligand (3,5-dimethyl-benzoic acid N-tert-butyl-N′-(2-ethyl-3-methoxy-benzoyl)-hydrazide) observed at any concentration.

[2] = biological target: wild-type Choristoneura fumiferana EcR (D, E and F domains) (Choristoneura fumiferana, UniProt O77240); format: cell-based; conditions: WT-CtEcR, 3T3 Cells; for RMFI (relative maximum fold induction): relative to GS-E ligand
Description: as §1, §2, §3, §4

| Structure (SMILES) | EC50 ([1]; rac, read-out: EC50) [nM] | RMFI (relative maximum fold induction) ([1]; rac) | EC50 ([2]; rac, read-out: EC50) [nM] | RMFI (relative maximum fold induction) ([2]; rac) | EC50 ([1]; rac) [nM] | EC50 ([2]; rac) [nM] | EC50 ([1]; S) [nM] | RMFI (relative maximum fold induction) ([1]; S) | EC50 ([2]; S, read-out: EC50) [nM] | RMFI (relative maximum fold induction) ([2]; S) |
| --- | --- | --- | --- | --- | --- | --- | --- | --- | --- | --- |
| CCCC(N(NC(=O)c1ccc(OC)c(OC)c1)C(=O)c1cc(C)cc(C)c1)C(C)(C)C (racemic) [rac-17] | 720 | 0.51 | 4130 | 0.25 |  |  |  |  |  |  |
| CCCC(N(NC(=O)c1cc(F)cc(F)c1)C(=O)c1cc(C)cc(C)c1)C(C)(C)C (racemic) [rac-18] | ~3 | 1.00 | 30.5 | 0.26 |  |  |  |  |  |  |
| CCCC(N(NC(=O)c1cc(OC)c(C)c(OC)c1)C(=O)c1cc(C)cc(C)c1)C(C)(C)C (racemic) [rac-19] | 3930 | 0.15 | > 10000 |  |  |  |  |  |  |  |
| CCCC(N(NC(=O)c1ccc2c(c1C)OCO2)C(=O)c1cc(C)cc(C)c1)C(C)(C)C (racemic) [rac-20] | 12.1 | 0.92 | 99.3 | 0.90 |  |  |  |  |  |  |
| CCCC(N(NC(=O)c1ccc2c(c1C)OCCO2)C(=O)c1cc(C)cc(C)c1)C(C)(C)C (racemic) [rac-21] | ~0.1 | 0.85 | 1.32 | 0.86 |  |  |  |  |  |  |
| CCCC(N(NC(=O)c1ccc2c(c1CC)OCCO2)C(=O)c1cc(C)cc(C)c1)C(C)(C)C (racemic) [rac-22] | 0.059 | 0.79 | 0.499 | 0.88 |  |  |  |  |  |  |
| CCCC(N(NC(=O)c1cccc2ccccc12)C(=O)c1cc(C)cc(C)c1)C(C)(C)C (racemic) [rac-23] | 66 | 0.84 | 521 | 0.60 |  |  |  |  |  |  |
| CCCC(N(NC(=O)c1ccc2ccccc2c1)C(=O)c1cc(C)cc(C)c1)C(C)(C)C (racemic) [rac-24] | 61 | 0.62 | ~500 | 0.44 |  |  |  |  |  |  |
| CCCC(N(NC(=O)c1cccs1)C(=O)c1cc(C)cc(C)c1)C(C)(C)C (racemic) [rac-25] | 172 | 0.89 | 3160 | 0.52 |  |  |  |  |  |  |
| CCCC(N(NC(=O)c1cc(C)oc1C)C(=O)c1cc(C)cc(C)c1)C(C)(C)C (racemic) [rac-26] | 84 | 0.97 | 2140 | 0.76 |  |  |  |  |  |  |
| CCCC(N(NC(=O)c1ccc(Cl)nc1)C(=O)c1cc(C)cc(C)c1)C(C)(C)C (racemic) [rac-28] | 47 | 0.68 | 470 | 0.70 |  |  |  |  |  |  |
| CCCC(N(NC(=O)c1cccc(OC)c1C)C(=O)c1cc(C)cc(C)c1)C(C)(C)C (racemic) [rac-29] | 0.15 | 0.77 | 3.88 | 0.98 |  |  |  |  |  |  |
| CCCC(N(NC(=O)OC(C)(C)C)C(=O)c1cc(C)cc(C)c1)C(C)(C)C (racemic) [rac-49, rac-N′-(1-tert-Butyl-butyl)-N′-(3,5-dimethyl-benzoyl)-hydrazinecarboxylic acid tert-butyl ester] |  | 0.50 |  | 0.02 | ~4000 | > 33000 |  |  |  |  |
| CCC[C@H](N(NC(=O)c1ccc(Cl)nc1)C(=O)c1cc(C)cc(C)c1)C(C)(C)C [Example 46, (S)-3,5-Dimethyl-benzoic acid N-(1-tert-butyl-butyl)-N′-(6-chloro-pyridine-3-carbonyl)-hydrazide] |  |  |  |  |  |  | 3990 | 0.42 |  |  |
| CCC[C@H](N(NC(=O)c1ccc2ccccc2c1)C(=O)c1cc(C)cc(C)c1)C(C)(C)C [Example S-24] |  |  |  |  |  |  |  |  | 5380 | 0.13 |
